Holding throughout (assay): NCI anticancer screen, dose series, 48 h
Test [1] concerns MALME-3M melanoma.
The subject of test [2] is NCI-H522 lung.
Test [3] relates to SK-MEL-2 melanoma.
The subject of test [4] is HL-60(TB) leukemia.
For test [5], the system named is KM12 colon.
In test [6] the test system is SR leukemia.
The test system of test [7] is SF-268 CNS.
For test [8], the system named is UO-31 renal.
The test system of test [9] is SF-539 CNS.
Test [10] deals with RPMI-8226 leukemia.

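Each compound was tested at five concentrations against cells in 96-well plates for 48 hours. At the TGI there is no net growth.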 Where a SMILES comes first, the peptide text is derived from it. The star is where a group is joined. Cbz = O=C(OCc1ccccc1)*

Turning to `CO[C@H]1O[C@@H]2CO[C@@H](c3ccccc3)O[C@H]2C[C@]12CCC/C=C\CO2`, the TGI in [1] is 26.4 µM; in test [2] it was 23.6 µM; in test [3] it was 41.4 µM; in test [4], 54.7 µM; in [5], more than 75 µM; in test [6], 31.8 µM. For the same compound, the TGI in test [7] is 32.1 µM; in [8], 25.2 µM; in test [9] it was 29.1 µM.
In the case of `O=C1c2ccccc2C(=O)N1c1ccc(OCCN2CCCCC2)cc1`, the TGI in test [1], in test [10], in test [2], in test [3], in test [4] and in test [5] was more than 100 µM in each case. Further, the TGI in test [6], in test [7] and in test [9] was more than 100 µM each time.
`COc1nc(=O)n(C2CC(N=[N+]=[N-])C(CO)O2)cc1C` (stereo unspecified): the TGI in [1], in [2], in [3], in [4], in test [5] and in test [6] was more than 100 µM each time. For the same compound, the TGI in test [7], in test [8] and in [9] was more than 100 µM in each case.
On to `CCCCCCCSCC(O)COC(c1ccccc1)(c1ccccc1)c1ccccc1` (stereo unspecified), for which the TGI in test [1] is more than 100 µM; in test [10], 87.3 µM; in [2] it was more than 100 µM; in test [3] it was 52.5 µM; in test [4], 63.9 µM; in [5], 16.9 µM. The TGI is 85.4 µM in test [6], 66.8 µM in test [7], 27.8 µM in [8] and more than 100 µM in [9].
On to `N#Cc1c(NC(=S)NCc2ccccc2)sc2c1CCN(N1CCc3c(sc(NC(=S)NCc4ccccc4)c3C#N)C1)C2`, for which the TGI in test [1], in [2], in test [3], in test [4], in [5] and in [6] was more than 100 µM each time. For the same compound, the TGI in [7], in test [8] and in test [9] was more than 100 µM throughout.
For the compound `O=[N+]([O-])C1(C2([N+](=O)[O-])CCCC2)CCCC1`, the TGI in [1], in test [10], in [2], in test [3], in test [4] and in test [5] was more than 100 µM in each case. Besides, the TGI in [6], in test [7], in test [8] and in [9] was more than 100 µM throughout.
For the compound `NC(CCCCNc1ccn(C2OC(CO)C(O)C2O)c(=O)n1)C(=O)O` (stereo unspecified), the TGI in [1], in [10], in test [2], in test [3], in test [4] and in test [5] was more than 100 µM each time. Moreover, the TGI in test [6], in test [7], in test [8] and in test [9] was more than 100 µM throughout.
Regarding `CN1C[C@@H]2CCCN2P1Oc1cccc2cccnc12` (stereo partly specified), the TGI is more than 100 µM in test [1]; 66.2 µM in test [10]; more than 100 µM in test [2]; more than 100 µM in test [3]; 72.9 µM in test [4]; more than 100 µM in test [5]. Further, the TGI was more than 100 µM in [6], 69.7 µM in test [7], more than 100 µM in test [8] and more than 100 µM in test [9].
Turning to `C[N+]1(C)CN(c2ccccc2)C2(CCN(CCCC(=O)c3cccs3)CC2)C1=O`, the TGI in test [1], in test [10], in test [2], in [3], in test [4] and in [5] was more than 100 µM throughout. The TGI in [6], in [7], in test [8] and in [9] was more than 100 µM throughout.
`O=C(NC(Nc1ccc(F)c(Cl)c1)(C(F)(F)F)C(F)(F)F)C(C(F)(F)F)C(F)(F)F`: the TGI in test [1] was 62 µM; in test [10], 66.8 µM; in test [2], 44.8 µM; in test [3] it was 44.5 µM; in [4] it was 44.6 µM; in test [5], more than 100 µM. Moreover, the TGI in test [6] was more than 100 µM; in test [7], more than 100 µM; in test [8] it was 59.1 µM; in test [9], 48.7 µM.
Turning to `Nc1c(C(=O)c2ccccc2)[nH]c(NCc2ccccc2)c1C(=S)Nc1ccccc1`, the TGI in test [1], in [2], in [3], in test [4], in [5] and in test [6] was more than 100 µM throughout. Besides, the TGI in test [7], in [8] and in [9] was more than 100 µM in each case.
As for `CC1OC(=O)c2ccccc2NC1=O` (stereo unspecified), the TGI in [1], in [10], in [2], in test [3], in test [4] and in test [5] was more than 100 µM throughout. The TGI in test [6], in [7], in test [8] and in test [9] was more than 100 µM throughout.
With `CC(Cc1ccc(O)c(O)c1)C(C)Cc1ccc(O)c(O)c1` (stereo unspecified), the TGI in [1] was 29.5 µM; in test [10], more than 63.8 µM; in [2], 4.91 µM; in test [3] it was 42.9 µM; in test [4] it was 10.3 µM; in [5], 33.5 µM. For the same compound, the TGI is more than 74.3 µM in test [6], 41.6 µM in [7], 23.1 µM in test [8] and 33.9 µM in test [9].
As to `CC(C)(C)OC(=O)N1CCC23CCCC2C(=O)CC=C13` (stereo unspecified), the TGI in test [1], in test [2], in test [3], in [4], in [5] and in test [6] was more than 100 µM in each case. Further, the TGI in [7], in test [8] and in test [9] was more than 100 µM each time.
Turning to `CCOC(=O)c1nc2cc(C(F)(F)F)ccc2nc1Nc1ccc(Cl)c(Cl)c1`, the TGI in [1], in test [10], in test [2], in test [3], in test [4] and in test [5] was more than 100 µM each time. Besides, the TGI in test [6], in [7], in [8] and in [9] was more than 100 µM throughout.
Take `Clc1nc2c(-c3cccs3)ncnc2n1Cc1ccccc1`: the TGI is more than 100 µM in test [1]; 70.6 µM in [10]; more than 100 µM in test [2]; more than 100 µM in [3]; more than 70.3 µM in test [4]; 37.5 µM in [5]. Moreover, the TGI was more than 100 µM in [6], more than 100 µM in test [7], 1.09 µM in test [8] and more than 100 µM in [9].
As for `O=C1OC(CN2CCN(c3ccccc3)CC2)CN1C(=S)Nc1ccccc1` (stereo unspecified), the TGI in test [1], in test [10], in test [2], in [3], in test [4] and in [5] was more than 100 µM throughout. Further, the TGI in test [6], in [7], in [8] and in test [9] was more than 100 µM each time.
With `CSC(=NCCN=C(NS(=O)(=O)c1ccc(Cl)cc1)SC)NS(=O)(=O)c1ccc(Cl)cc1`, the TGI was more than 100 µM in test [1]; more than 100 µM in test [10]; more than 100 µM in test [3]; more than 100 µM in [4]; more than 100 µM in test [6]; 68.7 µM in test [7]. For the same compound, the TGI in test [8] and in test [9] was more than 100 µM throughout.
On to `CN(/N=C\c1ccc2ccccc2c1)C1=NCCCCN1`, for which the TGI in [1] worked out at 30.1 µM; in test [10], 56.9 µM; in test [2] it was 34 µM; in test [3], 45.4 µM; in [4], 39.9 µM; in test [5], 52.1 µM. The TGI in test [6] is 68.7 µM; in test [7] it was more than 100 µM; in [8], 55.8 µM; in test [9] it was 48.6 µM.
For `Cc1ccc2[nH]c3c(C)c4ccncc4c(C)c3c2c1`, the TGI in test [1] turned out to be 4.16 µM; in test [10], 4.88 µM; in [2] it was 2.28 µM; in [3], 2.63 µM; in test [4] it was 3.42 µM; in test [5], 2.12 µM. In addition, the TGI turned out to be 4.25 µM in test [6], 2.11 µM in [7], 3.03 µM in [8] and 2.68 µM in [9].
In the case of `O=C1c2cc(CCl)sc2C(=O)c2ccsc21`, the TGI in test [1] came out at 0.0781 µM; in [10], 0.558 µM; in [2], 1.12 µM; in test [3] it was 0.42 µM; in [4], 0.497 µM; in test [5], 3.03 µM. Besides, the TGI came to 0.571 µM in [6], 0.676 µM in test [7], 0.962 µM in [8] and 0.553 µM in [9].
Turning to `CC(C)(C)C=C=C(C(C)(C)C)P(=O)(O)O`, the TGI in [1], in test [10], in test [2], in [3], in test [4] and in test [5] was more than 100 µM throughout. For the same compound, the TGI in test [6], in test [7] and in test [9] was more than 100 µM each time.
Consider `COC(=O)CCCCC/C(=C\C(=O)C(Cl)(Cl)Cl)OC`, for which the TGI in [1] worked out at 65.2 µM; in test [10] it was 60.9 µM; in test [2], 41.1 µM; in test [3], 50 µM; in test [4] it was 47.6 µM; in test [5], 95 µM. The TGI in [6] is 45.2 µM; in test [7] it was 86.3 µM; in test [8], more than 100 µM; in [9], 44.4 µM.
With `CC(C)(C)OC(=O)NC(Cc1ccc([N+](=O)[O-])cc1)C(=O)NC(CCCCNC(=O)OCc1ccccc1)C(=O)ON1C(=O)CCC1=O` (stereo unspecified), the TGI in test [1], in [10], in [2], in test [4], in [5] and in [6] was more than 100 µM each time. In addition, the TGI in [7], in [8] and in test [9] was more than 100 µM throughout.
For `O=C(O)CCC1(c2ccccc2)NC(=O)NC1=O` (stereo unspecified), the TGI in test [1], in test [10], in test [2], in test [3], in test [4] and in test [5] was more than 100 µM in each case. The TGI in [6], in [7] and in test [9] was more than 100 µM each time.
Consider `CCOC(=O)C(C)NC(=O)C(C)NC(=O)C(C)NC(=O)C(C)NC(=O)C(C)NC(=O)C(C)NC(=O)C(C)NC(=O)OCc1ccccc1` (stereo unspecified) (Cbz-AAAAAAA-OEt; configuration not given here), for which the TGI in [1], in test [10], in test [2], in test [4], in test [5] and in [6] was more than 100 µM in each case. In addition, the TGI in test [7], in test [8] and in test [9] was more than 100 µM in each case.
For the compound `CC(C)[Si]1(C(C)C)OCC2OC(n3ccc(=O)[nH]c3=O)C(O)(CO)C2O[Si](C(C)C)(C(C)C)O1` (stereo unspecified), the TGI in test [1] was 28.4 µM; in test [10], 26.2 µM; in test [3], 31 µM; in test [4], more than 100 µM; in test [5] it was 31 µM; in [6] it was 30 µM. Besides, the TGI in test [7] is 27.8 µM; in test [8] it was 22.2 µM; in test [9] it was 32.2 µM.
Consider `C[C@@H]1C(O)CC[C@H](C)C12CC=CC2=O` (stereo partly specified), for which the TGI in test [1], in test [10], in test [2], in test [3], in test [4] and in test [6] was more than 100 µM each time. For the same compound, the TGI in test [7], in test [8] and in [9] was more than 100 µM each time.

Values taken from PubChem BioAssay (NCI).
